Results reported in US20250236596A1, “HYDROXYLAMINE-BASED EGFR INHIBITORS FOR TREATMENT OF CANCER WITH BRAIN METASTASES” (University of Georgia Research Foundation, Inc., priority 2022, published 2025).

Tests used:
[1] = test system: Salmonella strains (TA98, TA100, TA1537 and TA1535); assay type: cell-based; details: with and without rat liver S9; 4 Salmonella strains
Description: Compounds were assessed for mutagenicity at Eurofins Panlabs. in 384-well plates using four Salmonella strains: TA98, to probe for frameshift mutation (with quercetin as control), TA100 and TA1535, to probe for base pair […] (with streptozotocin as control), and TA1537, to probe for frameshift mutations (with aminoacridine as control) as previously described.^21 Each compound was incubated at 37° C. for 96 h at four different concentrations (5, 10, 50, and 100 μM), with each concentration tested using 48 replicates, both with and without rat liver S9 metabolic activation. A concurrent bacterial cytotoxicity assay was ran at 0.6, 1.2, 2.5, 5, 10, 25, 50 and 100 μM to rule out false negatives. Bacterial cytotoxicity was expressed as percent of control growth (OD650). Compounds with growth of less than 60% control were flagged and considered bacterial cytotoxic. […] Significances of the positive counts between the treatment and control were determined using one-tailed Fisher's exact test.

Caco-2 cells = test: Caco-2 cell permeability assay; assay type: in vitro ADME; details: for efflux / permeability: result in words
Description: (§1) Compounds were evaluated at Pharmaron Inc. for their ability to permeate Caco-2 cells and MDCKII-MDR1 cells. A 96-well HTS Transwell plate (Corning) was used for the Caco-2 and MDCKII-MDR1 cell seeding. Caco-2 cells were seeded at a density of 6.86×10^5 cells/mL and cultivated for 14-18 days prior to assays. MDCKII-MDR1 cells were seeded at a density of 1.56×10^6 cells/mL and cultivated for 4-8 days prior to assays. To determine the rate of drug transport in both the absorptive (apical to basolateral (A-B)) and secretory (basolateral to apical (B-A)) directions, compounds (5 μM in DMSO for Caco-2 cells, and 1 μM in DMSO for MDCKII-MDR1 cells) were added to the donor wells. Plates were incubated at 37° C. for 2 h and samples (50 μL) were taken at the beginning and end of the incubation in both the donor and acceptor wells with the assay run in duplicate (n=2). Samples were analyzed by LC-MS/MS. The apparent permeability coefficient (Papp) in units (cm/s×10^−6) was calculated using the following equation.
(§2) where, VA represents the volume (mL) in the acceptor well. Area is the surface of the membrane (0.143 cm^2 for Transwell-96 well plate) and time is the total transport time in sec.
(§3) The efflux ratio was determined using the following equation: Efflux ratio=Papp (B-A)/Papp(A-B)
(§4) Where, Papp (B-A) indicates the apparent permeability in the basolateral to apical direction, and Papp (A-B) indicates the apparent permeability in the apical to basolateral direction.

MDCKII-MDR1 cells = test: MDCKII-MDR1 cell permeability assay; assay type: in vitro ADME, canine
Description: as §1, §2, §3, §4

[2] = target: activating mutant bearing EGFR; test: KINOMEScan KdELECT inhibitor binding constants (Kd); details: result in words
Description: (§5) In vitro kinase activity (inhibitor binding constants (Kd) and biochemical inhibition (IC50's)) were assessed by Eurofins DiscoverX (Kd determinations) and Eurofins Cerep (biochemical IC50 determinations).

[3] = test system: activating mutant bearing EGFR; test: KinaseProfiler enzymatic radiometric biochemical inhibition (IC50); details: ATP 10 μM, result in words
Description: as §5

Row | efflux (Caco-2 cells) | permeability (Caco-2 cells) | permeability (MDCKII-MDR1 cells; result in words) | SMILES | mutagenicity in AMES fluctuation assay [1] | increase in permeability compared to 1 (MDCKII-MDR1 cells) | efflux (MDCKII-MDR1 cells; result in words) | enhancement in permeability compared to 1 (Caco-2 cells) | inhibitor-binding constants (Kd) [2] | biochemical inhibition (IC50) [3]
1 | – | – | – | COc1cc2ncnc(Nc3ccc(F)c(Cl)c3)c2cc1OCCCN1CCOCC1 [Compound 1, Gefitinib, reference compound] | neither 1 or 6 were mutagenic | – | – | – | – | –
2 | high efflux | low permeability | – | COc1cc2ncnc(Nc3ccc(F)c(Cl)c3)c2cc1OCCON1CCN(C)CC1 [Compound 14, N-(3-chloro-4-fluorophenyl)-7-methoxy-6-(2-((4-methylpiperazin-1-yl)oxy)ethoxy)quinazolin-4-amine] | – | – | – | – | – | –
3 | reduced efflux ratios | remarkably enhanced permeability | excellent permeability | COc1cc2ncnc(Nc3cccc(Cl)c3F)c2cc1OCCON1CCOCC1 [Compound 13, N-(3-chloro-2-fluorophenyl)-7-methoxy-6-(2-(morpholinooxy)ethoxy)quinazolin-4-amine] | – | – | low efflux | – | – | –

Row | SMILES | efflux (Caco-2 cells) | permeability (Caco-2 cells) | permeability (MDCKII-MDR1 cells; result in words) | mutagenicity in AMES fluctuation assay [1] | increase in permeability compared to 1 (MDCKII-MDR1 cells) | efflux (MDCKII-MDR1 cells; result in words) | enhancement in permeability compared to 1 (Caco-2 cells) | inhibitor-binding constants (Kd) [2] | biochemical inhibition (IC50) [3]
4 | COc1cc2ncnc(Nc3ccc(F)c(Cl)c3)c2cc1OCCON1CCOCC1 [Compound 6, N-(3-chloro-4-fluorophenyl)-7-methoxy-6-(2-(morpholinooxy)ethoxy)quinazolin-4-amine] | greatly decreased efflux | – | – | neither 1 or 6 were mutagenic | roughly 4 fold | decreased efflux | 14 fold | single-digit nanomolar | single-digit nanomolar
